Laboratory results as given in patent US6825185B2, “Substituted aryl compounds as novel cyclooxygenase-2 selective inhibitors, compositions and methods of use” (NitroMed, Inc., priority 2000, dated 2004).

Assays:
[1] = molecular target: COX-1 (Homo sapiens, UniProt P23219); assay: COX-1 enzyme activity in human whole blood (A23187 stimulated, thromboxane B2 EIA); assay type: cell-based; parameters: Human blood (≈50 mL) from male or female donors who had not received any aspirin or NSAIDs for 14 days; endogenous in cells; host or cells: human whole blood from donors; conditions: test compound at 100 μM
Sequence of COX-1 (P23219 24-599): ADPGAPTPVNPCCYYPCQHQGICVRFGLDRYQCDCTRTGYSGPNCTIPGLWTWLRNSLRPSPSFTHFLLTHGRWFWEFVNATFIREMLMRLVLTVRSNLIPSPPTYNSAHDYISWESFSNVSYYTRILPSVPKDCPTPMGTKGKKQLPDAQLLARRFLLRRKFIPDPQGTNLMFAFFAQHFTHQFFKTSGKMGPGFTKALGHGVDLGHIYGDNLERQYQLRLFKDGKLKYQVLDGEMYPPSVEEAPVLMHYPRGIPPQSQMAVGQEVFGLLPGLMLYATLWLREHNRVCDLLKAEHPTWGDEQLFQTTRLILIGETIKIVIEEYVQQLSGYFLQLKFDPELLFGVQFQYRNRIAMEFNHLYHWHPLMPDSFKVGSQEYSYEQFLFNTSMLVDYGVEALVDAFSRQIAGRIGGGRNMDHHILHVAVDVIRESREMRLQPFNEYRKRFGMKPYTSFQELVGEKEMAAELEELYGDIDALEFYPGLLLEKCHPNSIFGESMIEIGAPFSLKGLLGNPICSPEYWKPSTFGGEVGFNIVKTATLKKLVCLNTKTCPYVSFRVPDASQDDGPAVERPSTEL

[2] = molecular target: T1, COX-2 (Homo sapiens, UniProt P35354); assay: COX-2 enzyme activity in human whole blood (LPS induced, thromboxane B2 EIA); assay type: cell-based; parameters: Human blood (≈50 mL) from male or female donors who had not received any aspirin or NSAIDs for 14 days; endogenous in cells; host or cells: human whole blood from donors, LPS-induced; conditions: test compound at 10 μM
T1 sequence (P35354 18-604): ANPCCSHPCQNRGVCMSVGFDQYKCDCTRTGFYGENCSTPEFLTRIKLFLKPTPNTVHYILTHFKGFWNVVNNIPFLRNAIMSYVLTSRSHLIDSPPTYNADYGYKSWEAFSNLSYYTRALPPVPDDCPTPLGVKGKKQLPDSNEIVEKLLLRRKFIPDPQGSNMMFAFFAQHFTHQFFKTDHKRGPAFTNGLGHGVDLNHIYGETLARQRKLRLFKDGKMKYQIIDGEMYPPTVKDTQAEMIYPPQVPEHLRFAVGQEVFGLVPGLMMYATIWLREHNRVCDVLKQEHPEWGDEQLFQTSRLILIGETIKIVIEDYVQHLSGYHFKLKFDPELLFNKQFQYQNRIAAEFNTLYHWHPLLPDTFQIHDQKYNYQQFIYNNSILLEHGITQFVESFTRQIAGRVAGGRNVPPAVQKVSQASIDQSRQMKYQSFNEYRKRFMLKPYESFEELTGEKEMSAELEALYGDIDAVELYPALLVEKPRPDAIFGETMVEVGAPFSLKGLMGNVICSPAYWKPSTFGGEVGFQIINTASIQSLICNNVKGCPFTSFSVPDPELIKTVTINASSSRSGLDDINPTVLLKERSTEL

| inhibition at 100 µM [1] [%] | inhibition at 10 µM [2] [%] | melting point [°C] | SMILES |
| --- | --- | --- | --- |
| 55 | 90 | 83 | CS(=O)(=O)c1ccc(-c2ccccc2C=C2CCCCC2)cc1 [Example 24e, 1-(2-(Cyclohexylidenemethyl)phenyl)-4-(methylsulfonyl)benzene] |
| 40 | 40 | 105 to 106 | CS(=O)(=O)c1ccc(-c2ccccc2C(=O)c2cccc(F)c2)cc1 [Example 25c, 3-Fluorophenyl 2-(4-(methylsulfonyl)phenyl)phenyl ketone] |
| 25 | 10 | 97 to 98 | CS(=O)(=O)c1ccc(-c2ccccc2Cc2cccc(F)c2)cc1 [Example 26, 1-(2-((3-Fluorophenyl)methyl)phenyl)-4-(methylsulfonyl)benzene] |
